One assay addresses MCT1. More on the design: method as in Ovens et al., 2010, Biochem. J. 425:523-30. Particulars: reported value, ref Ovens et al., 2010, Biochem. J. 425:523-30; cited from earlier work.
In assay [1] the target is T1, SfMCT (Syntrophobacter fumaroxidans, UniProt A0LNN5).
T1 construct: expressed in transfected cells; host or cells: E. coli JA202 (MC4100 glcA::cat lldP::kan), plasmid pEXT20-SfMCT-3C-10His
T1 sequence (A0LNN5 1-412): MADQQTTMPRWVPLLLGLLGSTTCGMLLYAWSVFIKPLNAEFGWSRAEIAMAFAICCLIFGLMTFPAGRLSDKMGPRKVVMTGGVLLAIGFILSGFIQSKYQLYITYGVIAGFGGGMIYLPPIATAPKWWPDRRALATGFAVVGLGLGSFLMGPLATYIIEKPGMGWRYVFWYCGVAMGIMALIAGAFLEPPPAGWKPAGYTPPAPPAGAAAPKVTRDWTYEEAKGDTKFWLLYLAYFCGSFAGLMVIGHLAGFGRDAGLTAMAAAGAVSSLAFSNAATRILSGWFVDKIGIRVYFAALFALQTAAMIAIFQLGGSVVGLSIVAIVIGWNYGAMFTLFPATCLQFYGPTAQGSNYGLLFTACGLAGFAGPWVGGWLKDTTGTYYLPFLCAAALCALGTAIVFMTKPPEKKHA
The assay is classed as cell-based. The protocol: The cultures were grown at 37 °C and 180 r.p.m. in an incubator shaker (Multitron, Infors HT). Protein expression was induced at OD600 ~0.5 by addition of IPTG to a final concentration of 0.25 mM. After 4 h, bacteria were pelleted (5,200 × g, 10 min, room temperature) and resuspended in uptake buffer (20 mM Bis-Tris propane-HCl (pH 6.7), 250 mM KCl) to a bacteria density of OD600 12. […] Furthermore, [3-3 H] propionic acid sodium salt ([^3H]propionate, American Radiolabeled Chemicals, specific activity 30 Ci/mmol), n-[2,3-3 H] butyric acid sodium salt ([^3H]butyrate, American Radiolabeled Chemicals, specific activity 120 Ci/mmol), and [1–14 C] pyruvic acid sodium salt ([^14C]pyruvate, specific activity 0.055 Ci/mmol American Radiolabeled Chemicals) were also used for transport experiments. […] Uptake experiments were performed in 2 ml reaction tubes (Eppendorf) at 30 °C under agitation (1,000 r.p.m., Thermomixer compact, Eppendorf). […] Bacteria were immediately pelleted by centrifugation (21,000 × g, 4 min, room temperature) and washed two times with 900 μl stop buffer. Finally, bacteria were lyzed in 50 μl 5% (w/v) sodium dodecylsulfate and transferred into a white 96-well plate (Optiplate, PerkinElmer). 150 µl of scintillation cocktail (MicroScint 40, PerkinElmer) were added before measuring each reaction for 2 min with a scintillation counter (TopCount NXT, PerkinElmer). For data analysis, the signal of the empty vector was subtracted from the transporter signal. […] Cpm values of each experiment were normalized with respect to the determined upper plateau value, i.e., the fitted upper plateau value corresponds to 100%. The arithmetic average of three independent experiments was calculated. Three independent and normalized pH-dependence curves were then averaged. For data analysis Prism6 (GraphPad Software) was used. […] Equal amounts of bacteria expressing SfMCT variants were loaded on 14% SDS/polyacrylamide gels. His-tagged transporters were detected using an anti-His5 (Qiagen, catalogue number 34660, primary antibody) at a dilution of 1:3,000 and a goat anti-mouse IgG (H + L) HRP conjugate antibody (Biorad, catalogue number 172-1011, secondary antibody) at a dilution of 1:2,500.

The target of the next assay is T2, Y331F SfMCT (Syntrophobacter fumaroxidans, UniProt A0LNN5, Y331F).
T2 construct: expressed in transfected cells; host or cells: E. coli JA202, pEXT20-SfMCT-3C-10His mutant plasmid
T2 sequence (A0LNN5 whole entry Y331F): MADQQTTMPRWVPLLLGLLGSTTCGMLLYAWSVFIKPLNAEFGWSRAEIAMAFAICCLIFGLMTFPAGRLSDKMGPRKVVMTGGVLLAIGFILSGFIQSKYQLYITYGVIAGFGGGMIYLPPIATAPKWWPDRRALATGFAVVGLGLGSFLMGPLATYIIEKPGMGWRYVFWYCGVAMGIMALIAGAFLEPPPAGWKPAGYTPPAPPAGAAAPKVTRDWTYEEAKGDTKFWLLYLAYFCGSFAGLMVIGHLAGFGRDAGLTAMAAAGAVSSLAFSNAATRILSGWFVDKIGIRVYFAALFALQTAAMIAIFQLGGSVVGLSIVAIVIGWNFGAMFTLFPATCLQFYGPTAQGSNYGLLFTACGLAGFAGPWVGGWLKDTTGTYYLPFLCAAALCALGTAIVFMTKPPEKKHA
Put plainly: [14C]L-lactate transport competition assay, Y331F SfMCT. The assay is classed as cell-based. Particulars: competition of [14C]L-lactate uptake. The protocol:
The cultures were grown at 37 °C and 180 r.p.m. in an incubator shaker (Multitron, Infors HT). Protein expression was induced at OD600 ~0.5 by addition of IPTG to a final concentration of 0.25 mM. After 4 h, bacteria were pelleted (5,200 × g, 10 min, room temperature) and resuspended in uptake buffer (20 mM Bis-Tris propane-HCl (pH 6.7), 250 mM KCl) to a bacteria density of OD600 12. […] Furthermore, [3-3 H] propionic acid sodium salt ([^3H]propionate, American Radiolabeled Chemicals, specific activity 30 Ci/mmol), n-[2,3-3 H] butyric acid sodium salt ([^3H]butyrate, American Radiolabeled Chemicals, specific activity 120 Ci/mmol), and [1–14 C] pyruvic acid sodium salt ([^14C]pyruvate, specific activity 0.055 Ci/mmol American Radiolabeled Chemicals) were also used for transport experiments. […] Cpm values of each experiment were normalized with respect to the determined upper plateau value, i.e., the fitted upper plateau value corresponds to 100%. The arithmetic average of three independent experiments was calculated. […] His-tagged transporters were detected using an anti-His5 (Qiagen, catalogue number 34660, primary antibody) at a dilution of 1:3,000 and a goat anti-mouse IgG (H + L) HRP conjugate antibody (Biorad, catalogue number 172-1011, secondary antibody) at a dilution of 1:2,500.

The target in assay [2] is T1, SfMCT. Nature of the assay: Micro pH electrode-based transport assay, SfMCT-expressing E. coli JA202. The assay is classed as cell-based. Particulars: 10 mM compound (pH 6.5) added to bacterial suspension pH 6.7. How it is done: A measuring set up as previously reported[18] was used for micro pH electrode-based transport measurements. SfMCT was expressed in E. coli JA202 (MC4100 glcA::cat lldP::kan)[15] as described for uptake experiments. After expression, bacteria were pelleted (5,200 × g, 10 min, room temperature), washed twice in assay solution (250 mM KCl, 1 mM MgSO4, 2 mM CaCl2; 5,200 × g, 10 min, room temperature) and finally resuspended in assay solution to a bacterial density of OD600 15. Compounds that were assayed for proton-coupled transport were dissolved in assay solution and the pH was adjusted to 6.5. 800 µl of bacteria suspension were transferred into a 2 ml reaction tube (Eppendorf) and the pH value of the bacterial suspension (extracellular medium) was measured using a micro pH electrode with integrated temperature sensor (InLab Micro Pro, Mettler Toledo) under constant stirring. The pH of the bacterial suspension was adjusted to pH 6.7 using potassium hydroxide and hydrochloric acid. The SevenCompact pH-meter (Mettler Toledo), together with LabX direct pH 2.3 software (Mettler Toledo), were used for automatic recording in 15 s intervals. Measurements were initiated by adding 10 mM of the corresponding compound to the bacterial suspension. All experiments were performed at 24 °C.

Entries after “also recorded” stand apart in the source; their conditions may differ.

For the compound `Cc1n[nH]c(C)c1Cc1sc2c(c1C(=O)N1C[C@H](O)CO1)c(=O)n(C)c(=O)n2CC(C)C` [AR-C155858, reference compound], on MCT1, the inhibition constant Ki (as a rule, a dissociation constant, usually derived from enzyme kinetics or from competition with a known ligand) is roughly 0.002 µM. Moreover, the “[14C]L-lactate uptake” value on SfMCT [1] (100 µM AR-C155858, control: 100%) was found to be 103%.

For `O=C(O)c1ccccc1S` [TSA, thiosalicylate], the Ki on Y331F SfMCT was 1380 µM; at SfMCT [1] (wild-type (WT) SfMCT, competition of [14C]L-lactate uptake), 120 µM. Besides, on SfMCT [2], the “proton-coupled transport, change of extracellular pH (in words)” value was “not a substrate; also recorded: not transported”.

Source of the values: paper PMC6573034 (Nature Communications, 2019).
